According to patent US20250214951A1, “3-PHENYLISOXAZOLE DERIVATIVE, AND PHARMACEUTICAL COMPOSITION FOR PREVENTING OR TREATING EYE DISEASE, CONTAINING SAME AS ACTIVE INGREDIENT” (VASTHERA CO., LTD., priority 2022, published 2025):

What was measured:
Format in all cases: cell-based, human
[1] = test system: A2E accumulated in ARPE-19 cells; experiment: Removal of intracellular A2E measured by HPLC/LC-MS; conditions: ARPE-19 loaded with 50 μM A2E 48 h; 10, 25, 50 μM, 24 h; FIG. 2
From the text: In Table 1 and FIG. 1, in order to measure the reduction of intracellular A2E by compounds, A2E-fluorescent substance (A2E-BDP) that is easy to observe fluorescence was used. In previous research reports, A2E-BDP is known to have the same intracellular dynamics and characteristics as A2E, but since A2E is a substance that actually exists in a living body, the quantitative change in intracellular A2E was directly measured using the HPLC method as follows.
ARPE-19 cell lines were dispensed into 6-well plates at a concentration of 4×10^3 cells/well and cultured for 24 hours. ARPE-19 cell lines were treated with A2E at a concentration of 50 μM for 48 hours to accumulate A2E intracellularly. To evaluate the A2E removal ability, ARPE-19 cells containing A2E were treated with compound 17 of the present invention (10, 25, 50 μM) for 24 hours. Thereafter, ARPE-19 cells were washed with phosphate-buffered saline (PBS), and cell lysis buffer containing a protease inhibitor was added to prepare a cell lysate. Chloroform and methanol (2:1, vol/vol) were added to the sample obtained above, shaken to extract A2E, and then centrifuged at 10,000 g for 10 minutes. […] LC-MS (Shimadzu LC-MS 2010EV) analysis was performed using a C18 column ([…]) with acetonitrile and 0.1% formic acid (gradient, 0-100%, 0-10 min; flow rate 1.0 ml/min; monitored at 503 nm). […]

[2] = test system: A2E-BDP in ARPE-19 cells; experiment: Removal of A2E-BDP by concentration, fluorescence and phase contrast microscopy
Experimental: ARPE-19 cell line was dispensed into a 24-well plate at a concentration of 4×10^4 cells/well and cultured for 24 hours. In order to induce A2E-BDP accumulation in ARPE-19 cell line, the cells were treated with […] of 10 μM for 24 hours. The A2E-BDP-containing ARPE-19 cells were treated with compound 17 (10, 25, 50 μM) for 24 hours. The level of A2E-BDP in each cell was measured as a fluorescence image at 510 nm using a Nikon Eclipse Ti—U fluorescence microscope (Tokyo, Japan). In addition, the change in cell number according to compound treatment was observed using a general phase contrast microscope, and the results are shown in FIG. 1. Meanwhile, lutein was used as a control substance.

[3] = test system: A2E-BDP in ARPE-19 cells; experiment: A2E-BDP removal ability by concentration of other example compounds; conditions: indicated concentrations; FIG. 13
Experimental: The human retinal pigment epithelial cell line (ARPE-19) used in the experiment was provided by ATCC (American Type Culture Collection). The ARPE-19 cell line was cultured in DMEM medium containing 10% FBS. After culture, the cells were dispensed into 96-well plates at a concentration of 4×10^3 cells/well and cultured for 24 hours. The ARPE-19 cell line was treated with A2E-fluorescent labeling substance (A2E-BDP) at a concentration of 10 μM for 24 hours to induce the accumulation of A2E-BDP in the ARPE-19 cell line.
In order to evaluate the intracellular A2E removal ability of the compound of the present invention, an easily detectable A2E-fluorescent labeling substance (A2E-BDP) was used. The ARPE-19 cells prepared by the above method were treated with each test compound at a concentration of 50 μM once, and then cultured for 24 hours. The cells were lysed by adding a cell lysis buffer containing a protease inhibitor (50 mM Tris-chloride, pH 8.0, 150 mM sodium chloride, 1% NP-40, 1% sodium deoxycholate, 1% sodium dodecyl sulfate, and 2 mM ethylenediamine tetraacetic acid) to each 96-well. The prepared cell lysate was transferred to a white 96-well plate, and the fluorescence intensity was measured using a fluorescence microplate reader (VICTOR™ X3, Perkin Elmer, USA) (excitation 485 nm, emission 535 nm).
The A2E-fluorescent labeling substance (A2E-BDP) removal ability was evaluated according to Experimental Example 1 (except that the test compound was treated at the indicated concentration).

[4] = test system: LC3-II (autophagy flux); experiment: Autophagy flux in A2E-accumulated ARPE-19 with or without bafilomycin; conditions: A2E 25 μM 24 h; 10, 25, 50 μM, 12 h; bafilomycin 2 nM 4 h; FIG. 9
Experimental: It was measured whether example 17 compound of the present invention increases autophagy flux in the ARPE-19 cell line in which A2E is accumulated. That is, the ARPE-19 cell line was dispensed into a 6-well plate at a concentration of 1×10^5 cells/well and cultured for 24 hours. The cells were treated with A2E at a concentration of 25 μM for 24 hours. The cells were treated with example 17 compound of the present invention at concentrations of 10, 25, and 50 μM for 12 hours each. The method of treating with bafilomycin (2 nM for 4 hours), preparing cell lysate, and measuring LC3-II by Western method was the same as in Experimental Example 8.

[5] = test system: ARPE-19 cells; experiment: Inhibition of retinal pigment epithelial cell death induced by A2E and blue light
Experimental: A2E accumulated in human retinal pigment epithelial cells is known to induce cytotoxicity by blue light irradiation. Using a human retinal pigment epithelial cell line, the effect of the compound of the present invention on inhibiting cell death by blue light irradiation was measured.
The ARPE-19 cell line was dispensed into a 6-well plate at a concentration of 2×10^4 cells/well and cultured for 24 hours. In order to induce A2E accumulation in the ARPE-19 cell line, cells were treated with A2E three times at a concentration of 25 μM at 48-hour intervals. Twenty-four hours after the last A2E treatment, cells were treated with example 17 compound of the present invention twice at 24-hour intervals at concentrations of 10, 25, and 50 μM, respectively. After an additional 24 hours of culture, blue light (BL, 430 nm, 7500 lux) was irradiated for 30 minutes and cultured for 24 hours. Cell death was observed under a microscope, and the number of living cells was measured using Image J (National Institutes of Health, USA) to calculate the quantitative cell viability.

[6] = test system: p62 protein phosphorylated at serine 349 (p-p62 (S349)); experiment: Autophagy activation by increase of p-p62 (S349), Western immunoblotting; conditions: indicated concentrations; FIG. 14
Experimental: The cells were treated with the test compounds at the indicated concentrations, and the autophagy activation effect through the increase of p62 protein (p-p62 (S349)) phosphorylated at serine 349 residue was measured by Western immunoblotting using an anti-p-p62 antibody, and the results are shown in FIG. 14. The increase in the intracellular P-p62 ([…]) level is one of the major indicators of autophagy activation.

With `C=CCOCc1cc(-c2cc(CC=C)ccc2OC)no1` [Example 17, 3-(5-allyl-2-methoxyphenyl)-5-((allyloxy)methyl)isoxazole] the “amount of accumulated A2E (HPLC)” value [1] was “significantly reduced in a concentration-dependent manner”, the “cytotoxicity against ARPE-19 cells (cell number, phase contrast microscope)” value ([2]; 10, 25, 50 μM, 24 h) was “no cytotoxicity” and the “A2E-BDP fluorescence intensity (fluorescence microscope)” value ([2]; ARPE-19 with A2E-BDP, 10, 25, 50 μM, 24 h, FIG. 1) was “a decrease in fluorescence intensity was observed in a concentration-dependent manner”. The “A2E-BDP removal ability compared with lutein” value ([2]; FIG. 1) was “better A2E-BDP removal ability than lutein”, the “A2E-BDP removal ability by concentration (amount of A2E)” value [3] was “concentration-dependent decrease in the amount of A2E” and the “autophagy flux in A2E-accumulated ARPE-19” value [4] was “significantly increased the autophagy flux”. The “cell death induced by A2E and blue light (microscope)” value ([5]; A2E 25 μM x3, compound 10, 25, 50 μM twice, blue light 430 nm, 7500 lux, 30 min, FIG. 3 upper) was “cell death was significantly inhibited”, the “cell viability quantified using Image J (cell death by A2E and blue light)” value ([5]; same model, FIG. 3 lower) was “statistically significantly inhibited” and the “autophagy activation through increase of p-p62 (S349)” value [6] was “activated autophagy in a concentration-dependent manner”.
